Assay results from paper PMC6009956, “Design, synthesis and biological activity of N^4-phenylsubstituted-7H-pyrrolo[2,3-d]pyrimidin-4-amines as dual inhibitors of aurora kinase A and epidermal growth factor receptor kinase” (Journal of Enzyme Inhibition and Medicinal Chemistry, 2017).
Read-outs that look alike come from different tables or passages of the source. One block for each compound: values may come before it.

How the values were obtained:
EGFR = EGFR (Homo sapiens, UniProt P00533); assay: ADP-Glo kinase assay, EGFR; assay type: biochemical; parameters: purchased BPS Bioscience (assay run externally by the vendor)
aurora A kinase (AURKA) = target: T1, aurora A kinase (AURKA) (Homo sapiens, UniProt O14965); assay: ADP-Glo kinase assay, Aurora A; assay type: biochemical
T1 construct: purchased BPS Bioscience (assay run externally by the vendor)
T1 sequence (O14965 1-403): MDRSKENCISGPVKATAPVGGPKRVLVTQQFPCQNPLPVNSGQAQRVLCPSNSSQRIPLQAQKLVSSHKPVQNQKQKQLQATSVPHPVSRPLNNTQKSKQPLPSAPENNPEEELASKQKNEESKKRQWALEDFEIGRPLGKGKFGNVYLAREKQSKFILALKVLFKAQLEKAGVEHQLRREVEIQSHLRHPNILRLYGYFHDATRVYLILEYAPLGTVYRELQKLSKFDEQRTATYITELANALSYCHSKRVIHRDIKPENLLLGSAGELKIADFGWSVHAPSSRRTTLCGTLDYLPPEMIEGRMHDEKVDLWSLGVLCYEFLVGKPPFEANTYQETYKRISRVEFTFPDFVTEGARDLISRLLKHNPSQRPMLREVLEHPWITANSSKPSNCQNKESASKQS

[1] = 10 µM ATP, triplicate, read-out: EGFR IC50 ± SD
[2] = 10 µM ATP/0.2 mg/ml Poly-Glu-Tyr, read-out: EGFR IC50 (dose-response curve, supplement)
[3] = 10 µM ATP, triplicate, read-out: AURKA IC50 ± SD
[4] = 10 µM ATP/0.2 mg/ml Kemptide, read-out: Aurora A IC50 (dose-response curve, supplement)

EGFR, sequence (P00533 25-1210): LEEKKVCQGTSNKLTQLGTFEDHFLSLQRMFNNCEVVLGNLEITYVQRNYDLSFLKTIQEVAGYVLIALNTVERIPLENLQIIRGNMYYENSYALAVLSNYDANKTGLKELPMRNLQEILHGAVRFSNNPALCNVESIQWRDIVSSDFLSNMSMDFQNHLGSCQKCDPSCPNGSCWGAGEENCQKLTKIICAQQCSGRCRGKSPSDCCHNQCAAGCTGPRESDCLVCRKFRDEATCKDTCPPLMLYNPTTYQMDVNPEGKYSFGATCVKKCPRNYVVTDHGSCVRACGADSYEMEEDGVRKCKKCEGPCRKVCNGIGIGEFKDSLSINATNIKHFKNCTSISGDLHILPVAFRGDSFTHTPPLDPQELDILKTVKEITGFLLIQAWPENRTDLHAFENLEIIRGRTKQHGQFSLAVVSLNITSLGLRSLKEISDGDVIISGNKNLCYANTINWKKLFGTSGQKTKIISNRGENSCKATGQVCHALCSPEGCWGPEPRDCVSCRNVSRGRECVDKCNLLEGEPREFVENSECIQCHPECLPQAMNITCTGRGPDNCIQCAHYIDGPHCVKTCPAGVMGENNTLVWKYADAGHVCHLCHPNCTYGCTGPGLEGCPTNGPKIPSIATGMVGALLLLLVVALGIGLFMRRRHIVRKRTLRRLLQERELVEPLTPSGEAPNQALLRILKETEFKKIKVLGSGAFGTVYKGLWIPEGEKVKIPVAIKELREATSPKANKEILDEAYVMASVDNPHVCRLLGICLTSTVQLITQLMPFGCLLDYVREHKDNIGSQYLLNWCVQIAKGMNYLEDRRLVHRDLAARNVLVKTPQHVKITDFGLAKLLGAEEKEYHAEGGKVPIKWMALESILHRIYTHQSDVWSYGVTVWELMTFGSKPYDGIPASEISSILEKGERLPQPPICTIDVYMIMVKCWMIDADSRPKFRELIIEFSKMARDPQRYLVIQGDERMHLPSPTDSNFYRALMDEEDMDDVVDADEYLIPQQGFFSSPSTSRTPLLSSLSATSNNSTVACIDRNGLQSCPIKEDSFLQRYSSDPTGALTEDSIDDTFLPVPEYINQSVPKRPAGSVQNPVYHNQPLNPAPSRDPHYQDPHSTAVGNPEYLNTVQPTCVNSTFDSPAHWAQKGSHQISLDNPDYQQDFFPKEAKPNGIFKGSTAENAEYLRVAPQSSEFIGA

IC50 (EGFR; [1]): 0.111 ± 0.0151 µM
IC50 (EGFR; [2]): 0.11 µM
EGFR % Activity Set1 (EGFR; Log[nM] 0): 93%
EGFR % Activity Set2 (EGFR; Log[nM] 0): 101%
EGFR % Activity Set3 (EGFR; Log[nM] 0): 99%
EGFR % Activity Set1 (EGFR; Log[nM] 1.0): 90%
EGFR % Activity Set2 (EGFR; Log[nM] 1.0): 91%
EGFR % Activity Set3 (EGFR; Log[nM] 1.0): 97%
EGFR % Activity Set1 (EGFR; Log[nM] 1.5): 72%
EGFR % Activity Set2 (EGFR; Log[nM] 1.5): 77%
EGFR % Activity Set3 (EGFR; Log[nM] 1.5): 83%
EGFR % Activity Set1 (EGFR; Log[nM] 2.0): 49%
EGFR % Activity Set2 (EGFR; Log[nM] 2.0): 51%
EGFR % Activity Set3 (EGFR; Log[nM] 2.0): 55%
EGFR % Activity Set1 (EGFR; Log[nM] 2.5): 24%
EGFR % Activity Set2 (EGFR; Log[nM] 2.5): 23%
EGFR % Activity Set3 (EGFR; Log[nM] 2.5): 29%
EGFR % Activity Set1 (EGFR; Log[nM] 3.0): 11%
EGFR % Activity Set2 (EGFR; Log[nM] 3.0): 10%
EGFR % Activity Set3 (EGFR; Log[nM] 3.0): 12%
EGFR % Activity Set1 (EGFR; Log[nM] 3.5): 5%
EGFR % Activity Set2 (EGFR; Log[nM] 3.5): 5%
EGFR % Activity Set3 (EGFR; Log[nM] 3.5): 5%
EGFR % Activity Set1 (EGFR; Log[nM] 4.0): 4%
EGFR % Activity Set2 (EGFR; Log[nM] 4.0): 4%
EGFR % Activity Set3 (EGFR; Log[nM] 4.0): 5%
EGFR % Activity Set1 (EGFR; Log[nM] 4.5): 5%
EGFR % Activity Set2 (EGFR; Log[nM] 4.5): 5%
EGFR % Activity Set3 (EGFR; Log[nM] 4.5): 5%
EGFR % Activity Set1 (EGFR; Log[nM] 5.0): 4%
EGFR % Activity Set2 (EGFR; Log[nM] 5.0): 4%
EGFR % Activity Set3 (EGFR; Log[nM] 5.0): 4%
IC50 (aurora A kinase (AURKA); [3]): 13.3 ± 3.57 µM
IC50 (aurora A kinase (AURKA); [4]): 12.9 µM
Aurora A % Activity Set1 (aurora A kinase (AURKA); Log[nM] 0): 100%
Aurora A % Activity Set2 (aurora A kinase (AURKA); Log[nM] 0): 94%
Aurora A % Activity Set3 (aurora A kinase (AURKA); Log[nM] 0): 93%
Aurora A % Activity Set1 (aurora A kinase (AURKA); Log[nM] 1.0): 97%
Aurora A % Activity Set2 (aurora A kinase (AURKA); Log[nM] 1.0): 97%
Aurora A % Activity Set3 (aurora A kinase (AURKA); Log[nM] 1.0): 97%
Aurora A % Activity Set1 (aurora A kinase (AURKA); Log[nM] 1.5): 103%
Aurora A % Activity Set2 (aurora A kinase (AURKA); Log[nM] 1.5): 99%
Aurora A % Activity Set3 (aurora A kinase (AURKA); Log[nM] 1.5): 106%
Aurora A % Activity Set1 (aurora A kinase (AURKA); Log[nM] 2.0): 97%
Aurora A % Activity Set2 (aurora A kinase (AURKA); Log[nM] 2.0): 100%
Aurora A % Activity Set3 (aurora A kinase (AURKA); Log[nM] 2.0): 98%
Aurora A % Activity Set1 (aurora A kinase (AURKA); Log[nM] 2.5): 102%
Aurora A % Activity Set2 (aurora A kinase (AURKA); Log[nM] 2.5): 96%
Aurora A % Activity Set3 (aurora A kinase (AURKA); Log[nM] 2.5): 95%
Aurora A % Activity Set1 (aurora A kinase (AURKA); Log[nM] 3.0): 77%
Aurora A % Activity Set2 (aurora A kinase (AURKA); Log[nM] 3.0): 81%
Aurora A % Activity Set3 (aurora A kinase (AURKA); Log[nM] 3.0): 79%
Aurora A % Activity Set1 (aurora A kinase (AURKA); Log[nM] 3.5): 65%
Aurora A % Activity Set2 (aurora A kinase (AURKA); Log[nM] 3.5): 63%
Aurora A % Activity Set3 (aurora A kinase (AURKA); Log[nM] 3.5): 63%
Aurora A % Activity Set1 (aurora A kinase (AURKA); Log[nM] 4.0): 46%
Aurora A % Activity Set2 (aurora A kinase (AURKA); Log[nM] 4.0): 42%
Aurora A % Activity Set3 (aurora A kinase (AURKA); Log[nM] 4.0): 44%
Aurora A % Activity Set1 (aurora A kinase (AURKA); Log[nM] 4.5): 41%
Aurora A % Activity Set2 (aurora A kinase (AURKA); Log[nM] 4.5): 39%
Aurora A % Activity Set3 (aurora A kinase (AURKA); Log[nM] 4.5): 39%
Aurora A % Activity Set1 (aurora A kinase (AURKA); Log[nM] 5.0): 34%
Aurora A % Activity Set2 (aurora A kinase (AURKA); Log[nM] 5.0): 34%
Aurora A % Activity Set3 (aurora A kinase (AURKA); Log[nM] 5.0): 32%
Structure (SMILES): c1ccc(Oc2ccc(Nc3ncnc4[nH]ccc34)cc2)cc1 [Compound 17, N^4-(4-phenoxyphenyl)-7H-pyrrolo[2,3-d]pyrimidin-4-amine]

IC50 (EGFR; [1]): 0.254 ± 0.026 µM
IC50 (EGFR; [2]): 0.253 µM
EGFR % Activity Set1 (EGFR; Log[nM] 0): 103%
EGFR % Activity Set2 (EGFR; Log[nM] 0): 98%
EGFR % Activity Set3 (EGFR; Log[nM] 0): 103%
EGFR % Activity Set1 (EGFR; Log[nM] 1.0): 101%
EGFR % Activity Set2 (EGFR; Log[nM] 1.0): 110%
EGFR % Activity Set3 (EGFR; Log[nM] 1.0): 106%
EGFR % Activity Set1 (EGFR; Log[nM] 1.5): 92%
EGFR % Activity Set2 (EGFR; Log[nM] 1.5): 91%
EGFR % Activity Set3 (EGFR; Log[nM] 1.5): 94%
EGFR % Activity Set1 (EGFR; Log[nM] 2.0): 66%
EGFR % Activity Set2 (EGFR; Log[nM] 2.0): 71%
EGFR % Activity Set3 (EGFR; Log[nM] 2.0): 76%
EGFR % Activity Set1 (EGFR; Log[nM] 2.5): 39%
EGFR % Activity Set2 (EGFR; Log[nM] 2.5): 42%
EGFR % Activity Set3 (EGFR; Log[nM] 2.5): 40%
EGFR % Activity Set1 (EGFR; Log[nM] 3.0): 24%
EGFR % Activity Set2 (EGFR; Log[nM] 3.0): 22%
EGFR % Activity Set3 (EGFR; Log[nM] 3.0): 22%
EGFR % Activity Set1 (EGFR; Log[nM] 3.5): 9%
EGFR % Activity Set2 (EGFR; Log[nM] 3.5): 9%
EGFR % Activity Set3 (EGFR; Log[nM] 3.5): 9%
EGFR % Activity Set1 (EGFR; Log[nM] 4.0): 4%
EGFR % Activity Set2 (EGFR; Log[nM] 4.0): 5%
EGFR % Activity Set3 (EGFR; Log[nM] 4.0): 5%
EGFR % Activity Set1 (EGFR; Log[nM] 4.5): 2%
EGFR % Activity Set2 (EGFR; Log[nM] 4.5): 2%
EGFR % Activity Set3 (EGFR; Log[nM] 4.5): 2%
EGFR % Activity Set1 (EGFR; Log[nM] 5.0): 1%
EGFR % Activity Set2 (EGFR; Log[nM] 5.0): 1%
EGFR % Activity Set3 (EGFR; Log[nM] 5.0): 1%
IC50 (aurora A kinase (AURKA); [3]): 5.58 ± 0.66 µM
IC50 (aurora A kinase (AURKA); [4]): 5.6 µM
Aurora A % Activity Set1 (aurora A kinase (AURKA); Log[nM] 0): 91%
Aurora A % Activity Set2 (aurora A kinase (AURKA); Log[nM] 0): 91%
Aurora A % Activity Set3 (aurora A kinase (AURKA); Log[nM] 0): 92%
Aurora A % Activity Set1 (aurora A kinase (AURKA); Log[nM] 1.0): 87%
Aurora A % Activity Set2 (aurora A kinase (AURKA); Log[nM] 1.0): 90%
Aurora A % Activity Set3 (aurora A kinase (AURKA); Log[nM] 1.0): 91%
Aurora A % Activity Set1 (aurora A kinase (AURKA); Log[nM] 1.5): 93%
Aurora A % Activity Set2 (aurora A kinase (AURKA); Log[nM] 1.5): 98%
Aurora A % Activity Set3 (aurora A kinase (AURKA); Log[nM] 1.5): 100%
Aurora A % Activity Set1 (aurora A kinase (AURKA); Log[nM] 2.0): 96%
Aurora A % Activity Set2 (aurora A kinase (AURKA); Log[nM] 2.0): 97%
Aurora A % Activity Set3 (aurora A kinase (AURKA); Log[nM] 2.0): 100%
Aurora A % Activity Set1 (aurora A kinase (AURKA); Log[nM] 2.5): 99%
Aurora A % Activity Set2 (aurora A kinase (AURKA); Log[nM] 2.5): 103%
Aurora A % Activity Set3 (aurora A kinase (AURKA); Log[nM] 2.5): 104%
Aurora A % Activity Set1 (aurora A kinase (AURKA); Log[nM] 3.0): 86%
Aurora A % Activity Set2 (aurora A kinase (AURKA); Log[nM] 3.0): 90%
Aurora A % Activity Set3 (aurora A kinase (AURKA); Log[nM] 3.0): 93%
Aurora A % Activity Set1 (aurora A kinase (AURKA); Log[nM] 3.5): 63%
Aurora A % Activity Set2 (aurora A kinase (AURKA); Log[nM] 3.5): 70%
Aurora A % Activity Set3 (aurora A kinase (AURKA); Log[nM] 3.5): 70%
Aurora A % Activity Set1 (aurora A kinase (AURKA); Log[nM] 4.0): 28%
Aurora A % Activity Set2 (aurora A kinase (AURKA); Log[nM] 4.0): 31%
Aurora A % Activity Set3 (aurora A kinase (AURKA); Log[nM] 4.0): 32%
Aurora A % Activity Set1 (aurora A kinase (AURKA); Log[nM] 4.5): 11%
Aurora A % Activity Set2 (aurora A kinase (AURKA); Log[nM] 4.5): 12%
Aurora A % Activity Set3 (aurora A kinase (AURKA); Log[nM] 4.5): 13%
Aurora A % Activity Set1 (aurora A kinase (AURKA); Log[nM] 5.0): 5%
Aurora A % Activity Set2 (aurora A kinase (AURKA); Log[nM] 5.0): 5%
Aurora A % Activity Set3 (aurora A kinase (AURKA); Log[nM] 5.0): 5%
Structure (SMILES): c1ccc(Nc2ncnc3[nH]ccc23)cc1 [Compound 1, N^4-phenyl-7H-pyrrolo[2,3-d]pyrimidine-4-amine]
